Results published in ChEMBL document CHEMBL1201862, “PubChem BioAssay data set” (2004).
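Briefly, cells in 96-well plates were exposed to five compound concentrations for 48 h, and endpoints were estimated by linear interpolation. GI50 marks 50% less growth.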 Calls of active or inactive are those of the source. No stated cut-off is given here; in the data, active = GI50 up to about 1.1 µM and inactive = higher.

Columns and labels:
Assay in all cases: NCI-60 cell line screen, 48 h
CAKI-1 = system: CAKI-1
COLO 205 = system: COLO 205
EKVX = system: EKVX
HCC 2998 = system: HCC 2998
HOP-92 = system: HOP-92
KM12 = system: KM12
M14 = system: M14
MOLT-4 = system: MOLT-4
Malme-3M = system: Malme-3M
NCI-H226 = system: NCI-H226
NCI-H23 = system: NCI-H23
NCI-H460 = system: NCI-H460
OVCAR-8 = system: OVCAR-8
SF-295 = system: SF-295
SK-MEL-28 = system: SK-MEL-28
SNB-19 = system: SNB-19
HCT-116 = system: HCT-116
UACC-257 = system: UACC-257

Structure (SMILES)	GI50 (CAKI-1)	GI50 (COLO 205)	GI50 (EKVX)	GI50 (HCC 2998)	GI50 (HOP-92)	GI50 (KM12)	GI50 (M14)	GI50 (MOLT-4)	GI50 (Malme-3M)	GI50 (NCI-H226)	GI50 (NCI-H23)	GI50 (NCI-H460)	GI50 (OVCAR-8)	GI50 (SF-295)	GI50 (SK-MEL-28)	GI50 (SNB-19)	GI50 (HCT-116)	GI50 (UACC-257)
O=C(CN1CCOCC1)Nc1nc(-c2ccc(Cl)cc2)cs1	34.4 µM (inactive)	31.9 µM (inactive)	75.2 µM (inactive)	26.8 µM (inactive)	53.7 µM (inactive)	19.5 µM (inactive)	32.2 µM (inactive)	13.8 µM (inactive)	23.1 µM (inactive)	24 µM (inactive)	15.1 µM (inactive)	28.3 µM (inactive)	23.8 µM (inactive)	25.8 µM (inactive)	25.6 µM (inactive)	39.1 µM (inactive)	–	–
NCCCCNc1ccc2c(=O)[nH][nH]c(=O)c2c1	> 100 µM (inactive)	> 100 µM (inactive)	> 100 µM (inactive)	> 100 µM (inactive)	> 100 µM (inactive)	> 100 µM (inactive)	> 100 µM (inactive)	> 100 µM (inactive)	> 100 µM (inactive)	> 100 µM (inactive)	> 100 µM (inactive)	–	> 100 µM (inactive)	> 100 µM (inactive)	> 100 µM (inactive)	> 100 µM (inactive)	> 100 µM (inactive)	> 100 µM (inactive)
Cc1c(C(=O)/C=C/c2ccc([N+](=O)[O-])cc2)[n+]([O-])c2ccccc2[n+]1[O-]	64.7 µM (inactive)	> 100 µM (inactive)	> 100 µM (inactive)	> 100 µM (inactive)	31.8 µM (inactive)	93.5 µM (inactive)	> 100 µM (inactive)	20.7 µM (inactive)	> 100 µM (inactive)	> 100 µM (inactive)	28.2 µM (inactive)	62.2 µM (inactive)	55.3 µM (inactive)	> 100 µM (inactive)	> 100 µM (inactive)	> 100 µM (inactive)	48.4 µM (inactive)	> 100 µM (inactive)
C[C@]12Cc3conc3C(O)=C1CC[C@@H]1C2CC[C@@]2(C)C1CC[C@@H]2O (stereo partly drawn)	8.24 µM (inactive)	32.7 µM (inactive)	17.5 µM (inactive)	–	22.8 µM (inactive)	12 µM (inactive)	12.4 µM (inactive)	6.68 µM (inactive)	9.4 µM (inactive)	18 µM (inactive)	18.1 µM (inactive)	12.6 µM (inactive)	25.8 µM (inactive)	18 µM (inactive)	12.1 µM (inactive)	31.4 µM (inactive)	–	21.3 µM (inactive)
O=C1C=CC(=O)C2=C1[C@@H](O)C1CC=CC3C(=O)O[C@@H]2C31 (stereo partly drawn)	20.4 µM (inactive)	20.3 µM (inactive)	> 59.6 µM (inactive)	18.5 µM (inactive)	26.2 µM (inactive)	19.8 µM (inactive)	19.6 µM (inactive)	20 µM (inactive)	19.1 µM (inactive)	37.5 µM (inactive)	27 µM (inactive)	> 55.8 µM (inactive)	39.5 µM (inactive)	39.5 µM (inactive)	> 45.8 µM (inactive)	> 100 µM (inactive)	19.8 µM (inactive)	21.8 µM (inactive)
O=C(O)C12C3C4C1C1C2C3C1(Br)C41OCCO1 (stereo not drawn)	–	> 100 µM (inactive)	> 100 µM (inactive)	> 100 µM (inactive)	> 100 µM (inactive)	> 100 µM (inactive)	–	> 100 µM (inactive)	> 100 µM (inactive)	–	> 100 µM (inactive)	> 100 µM (inactive)	> 100 µM (inactive)	> 100 µM (inactive)	> 100 µM (inactive)	> 100 µM (inactive)	> 100 µM (inactive)	> 100 µM (inactive)
COC(=O)[C@@]1(C)/C(=N/NS(=O)(=O)c2ccc(C)cc2)CCC[C@@H]1C	> 100 µM (inactive)	69.2 µM (inactive)	> 100 µM (inactive)	> 100 µM (inactive)	> 100 µM (inactive)	> 100 µM (inactive)	> 100 µM (inactive)	> 100 µM (inactive)	> 100 µM (inactive)	> 100 µM (inactive)	> 100 µM (inactive)	34 µM (inactive)	> 100 µM (inactive)	> 100 µM (inactive)	> 100 µM (inactive)	> 100 µM (inactive)	> 100 µM (inactive)	> 100 µM (inactive)
Cc1c2cc[n+](C)cc2c(C)c2c1[nH]c1ccc(Oc3ccccc3)cc12	2.12 µM (inactive)	0.845 µM (active)	3.08 µM (inactive)	3.18 µM (inactive)	0.935 µM (active)	0.736 µM (active)	4.37 µM (inactive)	1.69 µM (inactive)	1.71 µM (inactive)	0.544 µM (active)	0.53 µM (active)	–	0.605 µM (active)	0.294 µM (active)	2.89 µM (inactive)	0.506 µM (active)	1.29 µM (inactive)	1.28 µM (inactive)
Nc1ccc(C(=O)NN2C(=O)C(Cl)C2c2cc(Br)ccc2O)cc1 (stereo not drawn)	> 100 µM (inactive)	> 100 µM (inactive)	> 100 µM (inactive)	> 100 µM (inactive)	> 100 µM (inactive)	> 100 µM (inactive)	> 100 µM (inactive)	–	> 100 µM (inactive)	> 100 µM (inactive)	> 100 µM (inactive)	> 100 µM (inactive)	> 100 µM (inactive)	> 100 µM (inactive)	> 100 µM (inactive)	> 100 µM (inactive)	15.9 µM (inactive)	> 100 µM (inactive)
NC(=S)N1N=C2c3ccccc3CC[C@H]2[C@@H]1c1cccs1	–	16.5 µM (inactive)	38.4 µM (inactive)	37.4 µM (inactive)	68.7 µM (inactive)	26.6 µM (inactive)	22 µM (inactive)	21.5 µM (inactive)	19.2 µM (inactive)	29 µM (inactive)	24.6 µM (inactive)	33 µM (inactive)	32.7 µM (inactive)	15.8 µM (inactive)	44.3 µM (inactive)	75.7 µM (inactive)	28.8 µM (inactive)	28 µM (inactive)
CCc1nc(N)nc(C(=O)NCCNC(=O)c2nc(N)nc(CC)c2C)c1C	> 100 µM (inactive)	–	> 100 µM (inactive)	> 100 µM (inactive)	> 100 µM (inactive)	> 100 µM (inactive)	> 100 µM (inactive)	> 100 µM (inactive)	> 100 µM (inactive)	> 100 µM (inactive)	> 100 µM (inactive)	> 100 µM (inactive)	> 100 µM (inactive)	> 100 µM (inactive)	> 100 µM (inactive)	> 100 µM (inactive)	> 100 µM (inactive)	> 100 µM (inactive)
CCCc1nc(N)nc(C(=O)Nc2cccc(C(F)(F)F)c2)c1CC	> 100 µM (inactive)	–	> 100 µM (inactive)	> 100 µM (inactive)	> 100 µM (inactive)	> 100 µM (inactive)	> 100 µM (inactive)	> 100 µM (inactive)	> 100 µM (inactive)	> 100 µM (inactive)	> 100 µM (inactive)	> 100 µM (inactive)	> 100 µM (inactive)	> 100 µM (inactive)	> 100 µM (inactive)	> 100 µM (inactive)	> 100 µM (inactive)	> 100 µM (inactive)
